Square brackets hold non-standard residues; d marks the D form. Peptide text beside a SMILES is read from it. Gly(N-(CH2)6NH2) = NCCCCCCNCC(=O)O; Gly(N-2-aminoethyl) = NCCNCC(=O)O; Nspe = C[C@H](NCC(=O)O)c1ccccc1; Nphe = O=C(O)CNCc1ccccc1; Nlys = NCCCCNCC(=O)O
How the values were obtained:
[1] = Cytotoxicity assay with HepG2 (alamarBlue); format: cell-based, human; conditions: human, HepG2 cells, ED50 HepG2
Description: (§1) The activity of our peptoid library was assessed against both bacterial and mammalian cells to gain a broader understanding of the factors that lead to effective and selective antimicrobial peptoids. We screened for broad-spectrum antibacterial activity against Gram-negative (Escherichia coli and Pseudomonas aeruginosa) and Gram-positive (Staphylococcus aureus and S. epidermidis) bacteria. The toxicity of the library was also assessed against two mammalian cell lines; HaCaT spontaneously transformed aneuploid keratinocytes were employed to model toxicity against human skin cells and HepG2, a cell line derived from a human liver carcinoma, were used as a study on polarised human hepatocytes. Detailed methods for these assays can be found in the ESI. ^‡ […]
(§2) Please note – ED50, the median effective dose, was defined as the dose that kills 50% of cells.
(§3) Cytotoxicity analyses were performed in 96-well plates (Costar, Fisher Scientific) using alamarBlue® (Invitrogen) for cell viability detection using a modified protocol as described previously. HepG2 or HaCaT cells were subcultured at 37 °C, 5% CO2 in DMEM high glucose supplemented with heat-inactivated foetal bovine sera (FBS, 10%; Biosera Ltd) and penicillin/streptomycin (P/S, 1%). Cells were counted using a Neubauer Improved Haemocytometer. HepG2 cells were seeded 1 day prior to treatment in 96 well plates at a concentration of 2 × 10^5 cells per mL in 100 μL of medium (2 × 10^4 cells per well). Then cells were pre-incubated with the compounds in triplicate in a dilution series in triplicate from 2–100 μM (5 mM stock solutions in DMSO diluted from 100 μM to 3 μM; untreated cells with DMSO as a negative control) in 50 μl of the media for 1 hour. Afterwards, 40 μL were removed from each well before the addition of 90 μL of the media, followed by incubation for 24 hours at 37 °C, 5% CO2. Then, 10 μL of alamarBlue® (Invitrogen) was added to each well before a 2 hour incubation prior to assessing cell viability using a fluorescent plate reader (Biotek; Ex 560 nm/Em 600 nm). All data were measured in triplicate on a minimum of two occasions to ensure a robust data set was collected. The ED50 values were calculated from the dose response results achieved from the serial dilutions.
Cytotoxicity assay with HepG2
Cytotoxicity analyses were performed in 96-well plates (Costar, Fisher Scientific) using alamarBlue® (Invitrogen) for cell viability detection using a modified protocol as previously described. The HepG2 cells were grown at 37 °C, 5% CO2 in DMEM high glucose supplemented with heat-inactivated foetal bovine sera (FBS, 10%; Biosera Ltd) and penicillin/streptomycin (P/S, 1%). Cells were counted using a Neubauer Improved Haemocytometer. HepG2 cells were seeded 1 day prior to treatment in 96 well plates at a concentration of 2x10^5 cells/mL in 100 µL of medium (2x10^4 cells/well). Then cells were pre-incubated with the compounds in triplicate (5 mM stock solutions in DMSO diluted from 100 µM to 3 µM; untreated cells with DMSO as a negative control) in 50 µl of the media for 1 hour.
Afterwards, 40 µL were removed from each well before the addition of 90 µL of the media, followed by incubation for 24 hours at 37 °C, 5% CO2. Then, 10 µL of alamarBlue® (Invitrogen) was added to each well before a 2 hour incubation prior to assessing cell viability using a fluorescent plate reader (Biotek; Ex 560 nm / Em 600 nm). All data was measured in triplicate on a minimum of two occasions to ensure a robust data set was collected. The ED50 values were calculated from the dose response results achieved from the serial dilutions. […]
5% CO2 in DMEM high glucose supplemented with heat-inactivated foetal bovine sera (FBS, 10%; Biosera Ltd) and penicillin/streptomycin (P/S, 1%). Cells were counted using a Neubauer […]
Empty wells were filled with 100 µL PBS. After 24 hours, cells were incubated with the compounds in a dilution series in triplicate from 2 – 100 µM (5 mM stock solutions in DMSO […]

[2] = Skin cell toxicity assay with HaCaT (alamarBlue); format: cell-based, human; conditions: human, HaCaT cells (keratinocytes), ED50 HaCaT
Description: as §1, §2
as §3, with “dilutions. […]” for “dilutions.”
Cells were counted using a Neubauer Improved
Haemocytometer. […]
µM to 3 µM; untreated cells with DMSO as a negative control) in 50 µl of the media for 1 hour.
Afterwards, 40 µL were removed from each well before the addition of 90 µL of the media, followed by incubation for 24 hours at 37 °C, 5% CO2. Then, 10 µL of alamarBlue® (Invitrogen) was added to each well before a 2 hour incubation prior to assessing cell viability using a fluorescent plate reader (Biotek; Ex 560 nm / Em 600 nm). All data was measured in triplicate on a minimum of two occasions to ensure a robust data set was collected. The ED50 values were calculated from the dose response results achieved from the serial dilutions.
Skin Cell Toxicity assay with HaCaT […]
alamarBlue® (Invitrogen) for cell viability detection. HaCaT cells were subcultured at 37 °C, 5% CO2 in DMEM high glucose supplemented with heat-inactivated foetal bovine sera (FBS, 10%; Biosera Ltd) and penicillin/streptomycin (P/S, 1%). Cells were counted using a Neubauer Improved Haemocytometer. HaCaT cells were seeded in the plates 24 hours prior to treatment in 96 well plates at a concentration of 2x10^5 cells/mL in 100 µL of medium (2x10^4 cells/well).
Empty wells were filled with 100 µL PBS. After 24 hours, cells were incubated with the compounds in a dilution series in triplicate from 2 – 100 µM (5 mM stock solutions in DMSO diluted from 100 µM to 3 µM; Amphotericin B was used as a positive control and untreated cells with DMSO as a negative control) in 50 µL of the media for 1 hour. Afterwards, 40 µl was removed from each well, 90 µL of medium was added to each well and the cells incubated for 24 hours at 37 °C, 5% CO2. 10 µL of alamarBlue® (Invitrogen) was added to each well before […]

| SMILES | CC50 at 24 h [1] [µM] | CC50 at 24 h [2] [µM] |
| --- | --- | --- |
| NCCCCCCNCC(=O)N(CC(=O)N(CC(=O)N(CCCCCCN)CC(=O)N(CC(=O)N(CC(=O)N(CCCCCCN)CC(=O)N(CC(=O)N(CC(=O)N(CCCCCCN)CC(=O)N(CC(=O)N(CC(N)=O)Cc1ccccc1)Cc1ccccc1)Cc1ccccc1)Cc1ccccc1)Cc1ccccc1)Cc1ccccc1)Cc1ccccc1)Cc1ccccc1 [Peptoid 1, (NahNpheNphe)4] (H-[Gly(N-(CH2)6NH2)][Nphe][Nphe][Gly(N-(CH2)6NH2)][Nphe][Nphe][Gly(N-(CH2)6NH2)][Nphe][Nphe][Gly(N-(CH2)6NH2)][Nphe][Nphe]-NH2) | 100 | 100 |
| NCCCCCCNCC(=O)N(CC(=O)N(CC(=O)N(CCCCCCN)CC(=O)N(CC(=O)N(CC(=O)N(CCCCCCN)CC(=O)N(CC(=O)N(CC(N)=O)Cc1ccccc1)Cc1ccccc1)Cc1ccccc1)Cc1ccccc1)Cc1ccccc1)Cc1ccccc1 [Peptoid 2, (NahNpheNphe)3] (H-[Gly(N-(CH2)6NH2)][Nphe][Nphe][Gly(N-(CH2)6NH2)][Nphe][Nphe][Gly(N-(CH2)6NH2)][Nphe][Nphe]-NH2) | 100 | 100 |
| NCCCCCCNCC(=O)N(CC(=O)N(CC(=O)N(CCCCCCN)CC(=O)N(CC(=O)N(CC(N)=O)Cc1ccccc1)Cc1ccccc1)Cc1ccccc1)Cc1ccccc1 [Peptoid 3, (NahNpheNphe)2] (H-[Gly(N-(CH2)6NH2)][Nphe][Nphe][Gly(N-(CH2)6NH2)][Nphe][Nphe]-NH2) | 100 | 100 |
| NCCCCNCC(=O)N(CC(=O)N(CC(=O)N(CCCCN)CC(=O)N(CC(=O)N(CC(=O)N(CCCCN)CC(=O)N(CC(=O)N(CC(=O)N(CCCCN)CC(=O)N(CC(=O)N(CC(N)=O)Cc1ccccc1)Cc1ccccc1)Cc1ccccc1)Cc1ccccc1)Cc1ccccc1)Cc1ccccc1)Cc1ccccc1)Cc1ccccc1 [Peptoid 4, (NLysNpheNphe)4] (H-[Nlys][Nphe][Nphe][Nlys][Nphe][Nphe][Nlys][Nphe][Nphe][Nlys][Nphe][Nphe]-NH2) | 100 | 36 |
| NCCCCNCC(=O)N(CC(=O)N(CC(=O)N(CCCCN)CC(=O)N(CC(=O)N(CC(=O)N(CCCCN)CC(=O)N(CC(=O)N(CC(N)=O)Cc1ccccc1)Cc1ccccc1)Cc1ccccc1)Cc1ccccc1)Cc1ccccc1)Cc1ccccc1 [Peptoid 5, (NLysNpheNphe)3] | 100 | 100 |
| NCCCCNCC(=O)N(CC(=O)N(CC(=O)N(CCCCN)CC(=O)N(CC(=O)N(CC(N)=O)Cc1ccccc1)Cc1ccccc1)Cc1ccccc1)Cc1ccccc1 [Peptoid 6, (NLysNpheNphe)2] (H-[Nlys][Nphe][Nphe][Nlys][Nphe][Nphe]-NH2) | 100 | 100 |
| NCCNCC(=O)N(CC(=O)N(CC(=O)N(CCN)CC(=O)N(CC(=O)N(CC(=O)N(CCN)CC(=O)N(CC(=O)N(CC(=O)N(CCN)CC(=O)N(CC(=O)N(CC(N)=O)Cc1ccccc1)Cc1ccccc1)Cc1ccccc1)Cc1ccccc1)Cc1ccccc1)Cc1ccccc1)Cc1ccccc1)Cc1ccccc1 [Peptoid 7, (NaeNpheNphe)4] (H-[Gly(N-2-aminoethyl)][Nphe][Nphe][Gly(N-2-aminoethyl)][Nphe][Nphe][Gly(N-2-aminoethyl)][Nphe][Nphe][Gly(N-2-aminoethyl)][Nphe][Nphe]-NH2) | 100 | 100 |
| NCCNCC(=O)N(CC(=O)N(CC(=O)N(CCN)CC(=O)N(CC(=O)N(CC(=O)N(CCN)CC(=O)N(CC(=O)N(CC(N)=O)Cc1ccccc1)Cc1ccccc1)Cc1ccccc1)Cc1ccccc1)Cc1ccccc1)Cc1ccccc1 [Peptoid 8, (NaeNpheNphe)3] (H-[Gly(N-2-aminoethyl)][Nphe][Nphe][Gly(N-2-aminoethyl)][Nphe][Nphe][Gly(N-2-aminoethyl)][Nphe][Nphe]-NH2) | 100 | 100 |
| NCCNCC(=O)N(CC(=O)N(CC(=O)N(CCN)CC(=O)N(CC(=O)N(CC(N)=O)Cc1ccccc1)Cc1ccccc1)Cc1ccccc1)Cc1ccccc1 [Peptoid 9, (NaeNpheNphe)2] (H-[Gly(N-2-aminoethyl)][Nphe][Nphe][Gly(N-2-aminoethyl)][Nphe][Nphe]-NH2) | 100 | 100 |
| C[C@@H](c1ccccc1)N(CC(N)=O)C(=O)CN(C(=O)CN(CCCCCCN)C(=O)CN(C(=O)CN(C(=O)CN(CCCCCCN)C(=O)CN(C(=O)CN(C(=O)CN(CCCCCCN)C(=O)CN(C(=O)CN(C(=O)CNCCCCCCN)[C@@H](C)c1ccccc1)[C@@H](C)c1ccccc1)[C@@H](C)c1ccccc1)[C@@H](C)c1ccccc1)[C@@H](C)c1ccccc1)[C@@H](C)c1ccccc1)[C@@H](C)c1ccccc1 [Peptoid 10, (NahNspeNspe)4] (H-[Gly(N-(CH2)6NH2)][Nspe][Nspe][Gly(N-(CH2)6NH2)][Nspe][Nspe][Gly(N-(CH2)6NH2)][Nspe][Nspe][Gly(N-(CH2)6NH2)][Nspe][Nspe]-NH2; N-terminus assumed) | 41 | 23 |
| C[C@@H](c1ccccc1)N(CC(N)=O)C(=O)CN(C(=O)CN(CCCCCCN)C(=O)CN(C(=O)CN(C(=O)CN(CCCCCCN)C(=O)CN(C(=O)CN(C(=O)CNCCCCCCN)[C@@H](C)c1ccccc1)[C@@H](C)c1ccccc1)[C@@H](C)c1ccccc1)[C@@H](C)c1ccccc1)[C@@H](C)c1ccccc1 [Peptoid 11, (NahNspeNspe)3] (H-[Gly(N-(CH2)6NH2)][Nspe][Nspe][Gly(N-(CH2)6NH2)][Nspe][Nspe][Gly(N-(CH2)6NH2)][Nspe][Nspe]-NH2) | 100 | 100 |

Reference: PMC6072100, “Exploring the links between peptoid antibacterial activity and toxicity” (MedChemComm, 2017)
